SMILES strings stand for the structures. In brackets after ≈: the same amount, converted by molar mass.

Data set [1] concerns M. abscessus B18104072. Nature of the data set: MIC by microbroth dilution, with and without CF sputum. In kind it is cell-based. The note with it: Mycobacteroides abscessus. For orientation: In broth dilution the organism is exposed to a series of concentrations in liquid medium.
Data set [2] deals with M. avium ATCC 700898. Described as above. The format is cell-based. Conditions: Mycobacterium avium.
The conditions of data set [3]: BCS class II; cited from earlier work.
In data set [4] the test system is M. abscessus B15029863. Nature of the data set: MIC by microbroth dilution, with and without CF sputum. The format is cell-based. The note with it: Mycobacteroides abscessus.
The conditions of data set [5]: humans, microcrystalline suspension in an oil-wax base; cited from earlier work.
Data set [6] deals with M. avium B18101968. Nature of the data set: MIC by microbroth dilution, with and without CF sputum. In kind it is cell-based. The note with it: Mycobacterium avium.
The subject of data set [7] is M. abscessus CIP104536. Described as above. In kind it is cell-based. The note with it: Mycobacteroides abscessus.
Data set [8] deals with M. Chimaera CIP 107892. Described as above. The format is cell-based. The note with it: Mycobacterium intracellulare.
In data set [9] the test system is M. intracellulare DSM 43223. Described as above. In kind it is cell-based. The note with it: Mycobacterium intracellulare.
The subject of data set [10] is M. abscessus B12052284. Described as above. In kind it is cell-based. The note with it: Mycobacteroides abscessus.

For `CC(C)/N=c1\cc2n(-c3ccc(Cl)cc3)c3ccccc3nc-2cc1Nc1ccc(Cl)cc1` [Clofazimine, clofazimine], the minimum inhibitory concentration (MIC) was more than 2 mg/L in data set [1] (B18104072, + SP (10% CF sputum)); 1 mg/L (≈ 2.11 µM) in data set [1] (B18104072, absence of sputum); more than 2 mg/L in data set [2] (ATCC700898, + SP (10% CF sputum)); 0.25 mg/L (≈ 0.528 µM) in data set [2] (ATCC700898, absence of sputum); more than 2 mg/L in [4] (B15029863, + SP (10% CF sputum)); 2 mg/L (≈ 4.22 µM) in data set [4] (B15029863, absence of sputum). Further, the MIC in data set [6] (B18101968, + SP (10% CF sputum)) was more than 2 mg/L; in data set [6] (B18101968, absence of sputum), 0.5 mg/L (≈ 1.06 µM); in [7] (CIP104536, + SP (10% CF sputum)), more than 2 mg/L; in data set [7] (CIP104536, absence of sputum), 0.25 mg/L (≈ 0.528 µM); in data set [8] (CIP107892, + SP (10% CF sputum)), more than 2 mg/L; in data set [8] (CIP107892, absence of sputum) it was 0.5 mg/L (≈ 1.06 µM). Further, the MIC in [9] (DSM43223, + SP (10% CF sputum)) is more than 2 mg/L; in data set [9] (DSM43223, absence of sputum), 1 mg/L (≈ 2.11 µM); in data set [10] (B12052284, + SP (10% CF sputum)), more than 2 mg/L; in data set [10] (B12052284, absence of sputum) it was 2 mg/L (≈ 4.22 µM). The solubility in water entry in data set [3] is reported as “practically insoluble in water”. The “absorption after oral administration” value in [5] is on record as 45-62%.

A word on the MIC: it is the lowest concentration found to suppress growth.
